Assay results from article PMC12305662, “Fragment-Based Development of Small Molecule Inhibitors Targeting Mycobacterium tuberculosis Cholesterol Metabolism” (Journal of Medicinal Chemistry, 2025).
Values after ≈ are worked out from the molar mass of the structure shown. Where two headings read alike, the source gives them in different places.

How the values were obtained:
CYP125 [1] = molecular target: T1, CYP125 (Mycobacterium tuberculosis, UniProt P9WPP1); format: binding; conditions: for CYP125 Δλmax (nm) LS: low spin population, '-' = no LS maxima present; for Δλmax (nm) CYP125, fragment screen: fragment 1 mM, P450 4-6 µM, Soret shift relative to DMSO (393 nm)
T1 sequence (P9WPP1 whole entry, the tested form may be a part): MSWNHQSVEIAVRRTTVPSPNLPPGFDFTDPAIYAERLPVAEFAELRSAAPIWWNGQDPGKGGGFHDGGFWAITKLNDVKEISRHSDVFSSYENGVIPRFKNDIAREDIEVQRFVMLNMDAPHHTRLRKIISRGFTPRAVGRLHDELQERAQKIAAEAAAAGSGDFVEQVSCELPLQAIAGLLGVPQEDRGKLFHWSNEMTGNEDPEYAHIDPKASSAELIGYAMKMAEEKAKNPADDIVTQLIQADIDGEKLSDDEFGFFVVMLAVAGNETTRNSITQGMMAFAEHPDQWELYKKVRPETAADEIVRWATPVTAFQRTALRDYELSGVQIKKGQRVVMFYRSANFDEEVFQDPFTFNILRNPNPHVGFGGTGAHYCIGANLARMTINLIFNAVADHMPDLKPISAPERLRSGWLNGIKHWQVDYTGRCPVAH

CYP125 [2] = molecular target: T1, CYP125; assay: biochemical; format: binding; conditions: read-out: KD (μM) CYP125
CYP142 [3] = molecular target: T2, CYP142 (Mycobacterium tuberculosis, UniProt P9WPL5); conditions: for Δλmax (nm) CYP142, fragment screen: fragment 1 mM, P450 4-6 µM, relative to DMSO (418.5 nm)
T2 sequence (P9WPL5 whole entry, the tested form may be a part): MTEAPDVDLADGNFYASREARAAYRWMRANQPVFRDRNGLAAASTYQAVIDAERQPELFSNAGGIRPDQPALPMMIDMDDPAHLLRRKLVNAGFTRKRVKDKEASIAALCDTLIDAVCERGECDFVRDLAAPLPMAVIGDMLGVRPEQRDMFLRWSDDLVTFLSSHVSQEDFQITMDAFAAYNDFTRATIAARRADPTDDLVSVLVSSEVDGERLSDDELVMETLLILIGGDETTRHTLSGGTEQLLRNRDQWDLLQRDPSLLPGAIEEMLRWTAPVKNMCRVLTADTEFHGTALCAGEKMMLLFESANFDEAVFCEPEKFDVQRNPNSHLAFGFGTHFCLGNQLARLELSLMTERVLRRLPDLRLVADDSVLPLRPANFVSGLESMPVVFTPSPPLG

CYP142 [4] = molecular target: T2, CYP142; assay: biochemical
Mtb CDC1551 [5] = assay: Extracellular Mtb growth on cholesterol, MABA MIC99; format: cell-based, Mycobacterium tuberculosis; conditions: Mycobacterium tuberculosis, CDC1551, 336 h; cholesterol as sole carbon source; 2 weeks post-compound treatment; read-out: MABA-MIC99 (W2) CDC1551, cholesterol
Mtb CDC1551 [6] = assay: Depletion of intracellular ATP (BacTiter Glo), Mtb on cholesterol; format: cell-based; conditions: Mycobacterium tuberculosis, cholesterol as sole carbon source
Mtb H37Rv [7] = assay: Extracellular Mtb growth on cholesterol, MABA MIC99; format: cell-based, Mycobacterium tuberculosis; conditions: Mycobacterium tuberculosis, H37RV, 336 h; cholesterol as sole carbon source; 2 weeks post-compound treatment; read-out: MABA-MIC99 (W2) H37Rv, cholesterol
Mtb H37Rv [8] = assay: Depletion of intracellular ATP (BacTiter Glo), Mtb on cholesterol; format: cell-based, Mycobacterium tuberculosis; conditions: cholesterol as sole carbon source
CYP125 [9] = molecular target: T1, CYP125; assay: LC-MS substrate turnover assay (cholest-4-en-3-one); format: biochemical; conditions: for IC50: CYP125 0.5 μM, cholest-4-en-3-one 5 µM, LC-MS, read-out: CYP125A1 IC50; for Ki: estimated by Cheng-Prusoff, cholest-4-en-3-one Km CYP125 = 2.1 µM, read-out: CYP125A1 KI
CYP124 = CYP124 (Mycobacterium tuberculosis, UniProt P9WPP3); conditions: fragment 1 mM, P450 4-6 µM; relative to DMSO (419 nm)
Sequence of CYP124 (P9WPP3 whole entry, the tested form may be a part): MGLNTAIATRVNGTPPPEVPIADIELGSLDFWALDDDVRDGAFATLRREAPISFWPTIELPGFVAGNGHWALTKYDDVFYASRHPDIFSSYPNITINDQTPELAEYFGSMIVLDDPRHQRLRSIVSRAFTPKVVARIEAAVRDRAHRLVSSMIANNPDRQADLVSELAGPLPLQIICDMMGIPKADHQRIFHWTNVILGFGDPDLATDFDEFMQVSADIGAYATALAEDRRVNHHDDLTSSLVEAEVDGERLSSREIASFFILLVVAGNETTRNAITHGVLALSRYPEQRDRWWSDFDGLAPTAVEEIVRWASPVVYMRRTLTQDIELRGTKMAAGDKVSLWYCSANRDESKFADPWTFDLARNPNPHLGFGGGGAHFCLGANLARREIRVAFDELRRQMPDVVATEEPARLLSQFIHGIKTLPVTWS

CYP144 = CYP144 (Mycobacterium tuberculosis, UniProt P9WPL1); conditions: fragment 1 mM, P450 4-6 µM; relative to DMSO (421 nm)
Sequence of CYP144 (P9WPL1 whole entry, the tested form may be a part): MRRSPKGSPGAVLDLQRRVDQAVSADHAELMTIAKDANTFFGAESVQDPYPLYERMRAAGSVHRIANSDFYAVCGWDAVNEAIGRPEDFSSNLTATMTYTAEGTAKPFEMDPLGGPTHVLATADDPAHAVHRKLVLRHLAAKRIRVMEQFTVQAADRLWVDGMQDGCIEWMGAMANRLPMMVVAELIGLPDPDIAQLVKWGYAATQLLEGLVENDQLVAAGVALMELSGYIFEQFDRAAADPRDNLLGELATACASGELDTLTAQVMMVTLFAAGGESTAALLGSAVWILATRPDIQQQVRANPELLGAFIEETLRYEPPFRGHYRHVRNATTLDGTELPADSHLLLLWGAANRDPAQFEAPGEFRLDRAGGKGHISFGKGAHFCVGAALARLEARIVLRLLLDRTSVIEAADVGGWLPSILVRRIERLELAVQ

CYP126 = CYP126 (Mycobacterium tuberculosis, UniProt P9WPN9); conditions: fragment 1 mM, P450 4-6 µM; relative to DMSO (418 nm)
Sequence of CYP126 (P9WPN9 whole entry, the tested form may be a part): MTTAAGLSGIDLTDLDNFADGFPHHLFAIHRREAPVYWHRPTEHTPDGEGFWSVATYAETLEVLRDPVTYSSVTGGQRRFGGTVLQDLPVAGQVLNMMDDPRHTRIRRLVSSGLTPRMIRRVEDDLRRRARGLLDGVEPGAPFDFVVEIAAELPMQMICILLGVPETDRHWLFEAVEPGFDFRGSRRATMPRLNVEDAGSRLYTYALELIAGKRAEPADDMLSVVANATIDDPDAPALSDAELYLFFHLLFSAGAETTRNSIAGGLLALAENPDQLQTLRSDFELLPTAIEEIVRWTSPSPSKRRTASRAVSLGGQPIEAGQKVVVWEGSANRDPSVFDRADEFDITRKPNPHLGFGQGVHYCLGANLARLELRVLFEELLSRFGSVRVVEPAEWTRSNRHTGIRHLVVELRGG

CYP143 = CYP143 (Mycobacterium tuberculosis, UniProt P9WPL3); conditions: fragment 1 mM, P450 4-6 µM; relative to DMSO (416 nm)
Sequence of CYP143 (P9WPL3 whole entry, the tested form may be a part): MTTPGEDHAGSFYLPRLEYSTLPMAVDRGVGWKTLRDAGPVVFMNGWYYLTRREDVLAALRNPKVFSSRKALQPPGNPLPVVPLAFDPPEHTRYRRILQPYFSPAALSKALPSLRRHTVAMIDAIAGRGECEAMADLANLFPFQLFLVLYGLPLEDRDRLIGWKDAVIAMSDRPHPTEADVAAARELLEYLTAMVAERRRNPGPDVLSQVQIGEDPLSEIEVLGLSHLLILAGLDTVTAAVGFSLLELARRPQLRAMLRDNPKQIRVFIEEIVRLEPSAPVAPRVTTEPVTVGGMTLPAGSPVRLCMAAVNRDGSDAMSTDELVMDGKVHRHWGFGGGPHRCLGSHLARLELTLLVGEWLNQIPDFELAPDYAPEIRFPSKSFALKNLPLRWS

CYP121 = CYP121 (Mycobacterium tuberculosis, UniProt P9WPP7); conditions: fragment 1 mM, P450 4-6 µM; relative to DMSO (417 nm)
Sequence of CYP121 (P9WPP7 whole entry, the tested form may be a part): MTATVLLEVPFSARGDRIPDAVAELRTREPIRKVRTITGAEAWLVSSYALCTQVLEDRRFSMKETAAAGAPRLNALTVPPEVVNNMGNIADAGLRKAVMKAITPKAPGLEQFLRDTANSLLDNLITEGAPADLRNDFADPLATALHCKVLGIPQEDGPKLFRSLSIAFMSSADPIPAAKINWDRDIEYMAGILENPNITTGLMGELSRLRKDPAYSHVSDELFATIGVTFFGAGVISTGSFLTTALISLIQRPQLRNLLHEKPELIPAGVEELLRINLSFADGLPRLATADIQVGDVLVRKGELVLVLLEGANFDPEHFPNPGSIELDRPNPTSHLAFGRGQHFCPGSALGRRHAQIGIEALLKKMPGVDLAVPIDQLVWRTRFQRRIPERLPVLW

[10] = CDC1551, 168 h, 1 week post-compound treatment, read-out: ATP-IC50 (W1) CDC1551, cholesterol
[11] = CDC1551, 336 h, 2 weeks post-compound treatment, read-out: ATP-IC50 (W2) CDC1551, cholesterol
[12] = Mycobacterium tuberculosis, H37RV, 168 h, 1 week post-compound treatment, read-out: ATP-IC50 (W1) H37Rv, cholesterol
[13] = Mycobacterium tuberculosis, H37RV, 336 h, 2 weeks post-compound treatment, read-out: ATP-IC50 (W2) H37Rv, cholesterol

| SMILES | Kd (CYP125 [2]) [µM] | Δλmax (nm) CYP124, fragment screen (CYP124) [nm] | Δλmax (nm) CYP144, fragment screen (CYP144) [nm] | Δλmax (nm) CYP142, fragment screen (CYP142 [3]) [nm] | Δλmax (nm) CYP125, fragment screen (CYP125 [1]) [nm] | Δλmax (nm) CYP126, fragment screen (CYP126) [nm] | Δλmax (nm) CYP143, fragment screen (CYP143) [nm] | Δλmax (nm) CYP121, fragment screen (CYP121) [nm] | also measured |
| --- | --- | --- | --- | --- | --- | --- | --- | --- | --- |
| c1ccc(Cc2ccncc2)cc1 [1a] | 180 ± 6.7 | – | – | – | – | – | – | – | CYP125 Δλmax (nm) HS (CYP125 [1]; compound 100 µM, P450 5 µM, high spin population, '-' = no HS maxima present): 2 nm; CYP125 Δλmax (nm) LS (CYP125 [1]; compound 100 µM, P450 5 µM): 27 nm |
| CC(=O)Nc1ccc(Cc2ccncc2)cc1 [3f, N-(4-(Pyridin-4-ylmethyl)phenyl)acetamide] | 18 ± 0.56 | – | – | – | – | – | – | – | CYP142 Δλmax (nm) (CYP142 [3]; compound 100 µM, P450 5 µM): 2 nm; CYP125 Δλmax (nm) LS (CYP125 [1]; compound 100 µM, P450 5 µM): 13 nm; Kd (CYP142 [4]): 1.4 ± 0.36 µM |
| O=C(Nc1ccc(Nc2ccncc2)cc1)c1ccccc1 [5b, N-(4-(Pyridin-4-ylamino)phenyl)benzamide] | 11 ± 1.8 | – | – | – | – | – | – | – | Kd (CYP142 [4]): 2.83 ± 0.001 µM |
| O=C(NCc1ccc2[nH]ccc2c1)c1cccc(Cc2ccncc2)c1 [5e, N-((1H-Indol-5-yl)methyl)-3-(pyridin-4-ylmethyl)benzamide] | 4 ± 0.36 | – | – | – | – | – | – | – | MIC99 (Mtb CDC1551 [5]): 6.3 µM (≈ 2.15 µg/mL); IC50 (Mtb CDC1551 [6]; [10]): 0.07 µM; IC50 (Mtb CDC1551 [6]; [11]): 19 µM; MIC99 (Mtb H37Rv [7]): 13 µM (≈ 4.44 µg/mL); IC50 (Mtb H37Rv [8]; [12]): 2.3 µM; IC50 (Mtb H37Rv [8]; [13]): 19 µM; IC50 (CYP125 [9]): 9.2 ± 0.89 µM; Ki (CYP125 [9]): 2.7 µM |
| O=C(NCc1ccc2[nH]ccc2c1)c1cccc(Nc2ccncc2)c1 [5g, N-((1H-Indol-5-yl)methyl)-3-(pyridin-4-ylamino)benzamide] | 3.8 ± 0.18 | – | – | – | – | – | – | – | MIC99 (Mtb CDC1551 [5]): 25 µM (≈ 8.56 µg/mL); IC50 (Mtb CDC1551 [6]; [10]): 9.4 µM; IC50 (Mtb CDC1551 [6]; [11]): 38 µM; MIC99 (Mtb H37Rv [7]): 13 µM (≈ 4.45 µg/mL); IC50 (Mtb H37Rv [8]; [12]): < 5 µM; IC50 (Mtb H37Rv [8]; [13]): 9.4 µM; IC50 (Mtb H37Rv [8]; 1 week post-compound treatment, read-out: ATP-IC50 (W1) H37Rv, cholesterol): 4.7 µM; IC50 (CYP125 [9]): 25 ± 2.4 µM; Ki (CYP125 [9]): 7.1 µM |
| COc1ccc(CNc2cccc(Cc3ccncc3)c2)cc1 [5l, N-(4-Methoxybenzyl)-3-(pyridin-4-ylmethyl)aniline] | 6.4 ± 1.1 | – | – | – | – | – | – | – | MIC99 (Mtb H37Rv [7]): 19 µM (≈ 5.78 µg/mL); IC50 (Mtb H37Rv [8]; [12]): 0.59 µM; IC50 (Mtb H37Rv [8]; [13]): 2.3 µM; IC50 (CYP125 [9]): 18 ± 1.9 µM; Ki (CYP125 [9]): 5.4 µM |
| CS(=O)(=O)c1cccc(CNc2ccc(Cc3ccncc3)cc2)c1 [5p, N-(3-(Methylsulfonyl)benzyl)-4-(pyridin-4-ylmethyl)aniline] | 0.35 ± 0.19 | – | – | – | – | – | – | – | MIC99 (Mtb CDC1551 [5]): 13 µM (≈ 4.58 µg/mL); IC50 (Mtb CDC1551 [6]; [10]): 2.3 µM; IC50 (Mtb CDC1551 [6]; [11]): 19 µM; MIC99 (Mtb H37Rv [7]): 13 µM (≈ 4.58 µg/mL); IC50 (Mtb H37Rv [8]; [12]): 1.2 µM; IC50 (Mtb H37Rv [8]; [13]): 4.7 µM; IC50 (CYP125 [9]): 10 ± 0.95 µM; Ki (CYP125 [9]): 3.1 µM |
| OCc1ccc(Cn2cncn2)cc1 [compound 69] | – | 0 | 0 | 0 | 0 | 0 | 0 | 0 | – |
| Cn1nc(C(=O)O)cc1-c1ccccc1 [compound 70] | – | 2 | 0 | 0 | 0 | 0 | 0.5 | 0 | – |
| N#Cc1cccc(-n2ccnc2)c1 [compound 71] | – | 1 | 0 | 3 | 0 | 0 | 2.5 | 0 | – |
| N#Cc1ncccc1F [compound 72] | – | 0 | 0 | 0 | 0 | 0 | 0 | 0 | – |
| Nc1ccc(Cl)nn1 [compound 73] | – | 0 | 0 | 0 | 0 | 0 | 0 | 0 | – |
| O=C(O)c1cccc(-c2cccnc2)c1 [compound 74] | – | 0 | 0 | 0 | 0 | 0 | 1 | 0 | – |
| C#Cc1cccnc1 [compound 75] | – | 0 | 0 | 0 | 0 | 0 | 0 | 0 | – |
| Brc1c[nH]cn1 [compound 77] | – | 0 | 0 | 3 | 0 | 0 | 0.5 | -1 | – |
| O=S(=O)(O)c1ccccn1 [compound 78] | – | 0 | 0 | 0 | 0 | 0 | 1 | 0 | – |
| O=C(O)[C@@H]1Cc2ccccc2CN1 [compound 79] | – | 0 | 0 | 0 | -2 | 0 | 0 | 1 | – |
| Cc1ccc(S(N)(=O)=O)nc1 [compound 80] | – | 0 | 0 | 0 | 0 | 0 | 0 | 0 | – |
